Experimental data: PMC12045974, “T cell toxicity induced by tigecycline binding to the mitochondrial ribosome” (Nature Communications, 2025)
Where “and” joins values, the source holds several entries; their conditions need not be identical. Equal values may be shown once. Read-outs that look alike come from different tables or passages of the source.

Legend:
[1] = test system: mitochondrial translation; assay: 35S metabolic labeling, de novo mitochondrial translation assay in Jurkat T cells; format: cell-based, human; settings: 5 μM, 18 h of treatment
Method: Jurkat T cells were seeded in 6-well plates at a density of 1 million cells/ml and cultured with different concentrations of antibiotics for 18 h in RPMI-1640 medium (with 10% FBS, 2.05 mM L-glutamine (Sigma), and 55 μM 2-ME (Gibco)). After centrifugation, cells were incubated twice for 5 min at 37 °C in Cys-/Met-free medium (DMEM, high glucose, no glutamine, no methionine, no cysteine, supplemented with 10% dialyzed fetal bovine serum, 1× GlutaMax, and sodium pyruvate), followed by 20 min incubation at 37 °C in Cys-/Met-free medium supplemented with 100 µg/ml emetine to inhibit cytosolic translation (only for mitochondrial translation groups). Subsequently, 1 ml Cys-/Met-free medium supplemented with 200 (for cytosolic translation) or 400 µCi (for mitochondrial translation) of EasyTag EXPRESS [^35S] protein labeling mix (methionine and cysteine) (Perkin Elmer) were added to each sample and incubated for 20 min at 37 °C, 5% CO2. Following labeling, cells were washed three times with 1 ml PBS, harvested by centrifugation (400 × g, 10 min, 4 °C), and stored at −20 °C. Cells were lysed by resuspension in 30 µl PBS supplemented with a Complete EDTA-free protease inhibitor cocktail and 50 U Benzonase nuclease (Sigma) and by application of one freeze-thaw cycle. Protein contents were determined by Pierce BCA assay (Thermo Fisher). […]

Jurkat T cells = assay: Cell viability assay (CCK-8), Jurkat T cells; format: cell-based, human; settings: 72 h; for cell vialibity normalized to Vehicle (DMSO): Jurkat, Fig. 1A, in % (unit assumed)
In short: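 This CCK-8 viability assay used Jurkat T cells seeded at 6000 per well and grown in supplemented RPMI-1640, 100 μl per well. Antibiotic stocks in DMSO were diluted in medium to give 9 concentrations, and untreated wells received matching DMSO. After treatment, cells were incubated with 10% CCK-8 for 3 h. Results were normalized to vehicle, technical repeats were plotted as mean ± SEM, and IC50 values were derived.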

PBMCs = assay: Cell viability assay (CCK-8), PBMCs; format: cell-based, human; settings: 72 h
In short: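 Buffy-coat PBMCs were seeded at 15,000 cells/well in RPMI-1640 with 10% FBS, 2.05 mM L-glutamine and 55 μM 2-ME. Cells were exposed for 72 h at 37 °C, 5% CO2 to 9 concentrations, up to 300 μM for tetracyclines and up to 900 μM for other inhibitors, with DMSO controls. CCK-8 read after 4 h; IC50 from dose-response curves.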

HeLa cells = assay: Cell viability assay (CCK-8), HeLa cells; format: cell-based; settings: 10 μM
In short: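 Viability of HeLa cells was measured with Cell Counting Kit-8 after treatment with drug dilutions in 96-well plates (2000 cells/well, DMEM plus 10% FBS and 2.05 mM L-glutamine, humidified 37 °C, 5% CO2). Untreated wells received equal DMSO. After 1 h CCK-8 incubation, technical-repeat dose-response curves were plotted and IC50 values calculated in GraphPad Prism.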

[2] = Homo sapiens, PBMC, PBMCs, Fig. 1A, read-out: cell vialibity normalized to Vehicle (DMSO)
[3] = Homo sapiens, PBMC, PBMCs, Fig. 1B, read-out: cell vialibity normalized to Vehicle (DMSO)

In the case of `CN(C)c1cc(NC(=O)CNC(C)(C)C)c(O)c2c1C[C@H]1C[C@H]3[C@H](N(C)C)C(O)=C(C(N)=O)C(=O)[C@@]3(O)C(O)=C1C2=O` [Tigecycline, tigecycline], the “inhibition of mitochondrial translation” value [1] is reported as “inhibited mitochondrial translation”, the IC50 (Jurkat T cells; Homo sapiens, Jurkat T cells, after 3 days of treatment, read-out: IC50 (cell survival)) is reported as 2.94 to 3.08 µM and the “cell vialibity normalized to Vehicle (DMSO)” value (from here on “cell vialibity normalized”) (Jurkat T cells; dose 0.0457247 μM) is reported as 109.956 and 111.249 and 111.849. The “cell vialibity normalized” value (Jurkat T cells; dose 0.137174 μM) was 103.553 and 105.77 and 101.862, the “cell vialibity normalized” value (Jurkat T cells; dose 0.411523 μM) was 97.7193 and 94.1885 and 95.1333 and the “cell vialibity normalized” value (Jurkat T cells; dose 1.23457 μM) was 79.9123 and 80.3238 and 79.0851. The “cell vialibity normalized” value (Jurkat T cells; dose 3.7037 μM) was 38.8158 and 37.5675 and 38.722, the “cell vialibity normalized” value (Jurkat T cells; dose 11.1111 μM) was 18.2456 and 17.144 and 16.3775 and the “cell vialibity normalized” value (Jurkat T cells; dose 33.3333 μM) was 11.1842 and 10.0457 and 10.0296. The “cell vialibity normalized” value (Jurkat T cells; dose 100 μM) was 4.123 and 3.321 and 4.232, the “cell vialibity normalized” value (Jurkat T cells; dose 300 μM) was 2.237 and 2.989 and 2.158 and the “toxicity to PBMCs in comparison with other bacterial protein synthesis inhibitors” value (PBMCs; Fig. 1B) was “greatest toxicity to PBMCs”. For the same molecule, the viability at 0.137174 µM (PBMCs; Homo sapiens, PBMC, PBMCs, dose 0.137174 μM, Fig. 1B, read-out: cell vialibity normalized to Vehicle (DMSO)) was 103%, the viability at 0.411523 µM (PBMCs; [2]) was 83.9% and the viability at 0.411523 µM (PBMCs; [3]) was 89.9%. The viability at 1.23457 µM (PBMCs; [2]) was 75.3%, the viability at 1.23457 µM (PBMCs; [3]) was 65.1% and the viability at 3.7037 µM (PBMCs; Homo sapiens, PBMC, PBMCs, dose 3.7037 μM, Fig. 1B, read-out: cell vialibity normalized to Vehicle (DMSO)) was 39.4%. For the same molecule, the viability at 11.1111 µM (PBMCs; Homo sapiens, PBMC, PBMCs, dose 11.1111 μM, Fig. 1A, read-out: cell vialibity normalized to Vehicle (DMSO)) was 44.2%, the viability at 33.3333 µM (PBMCs; [2]) was 38.8% and the viability at 33.3333 µM (PBMCs; [3]) was 21.2%. For the same molecule, the viability at 100 µM (PBMCs; [2]) was 20.8%, the viability at 100 µM (PBMCs; [3]) was 17.6% and the IC50 (PBMCs; Homo sapiens, PBMC, PBMCs, after 3 days of treatment, read-out: IC50 (cell survival)) was 2.02 to 9.42 µM. The HeLa cell survival (HeLa cells) was “relatively resistant”.
